Measured values taken from patent US10532106B2 (priority 2014, dated 2020).
Entries after “also recorded” stand apart in the source; their conditions may differ. Read-outs that look alike come from different tables or passages of the source. Blank lines part the entries; values can stand above or below the molecule they belong to. Numbered stars: 1 amine (or outer) side, 2 acyl side, 3 side chain; on linkers, the order of the positions; unused ones are H or OH. Bridge positions count the residues as written; N and C are the ends. Square brackets hold non-standard residues; d marks the D form. Peptide text beside a SMILES is read from it. * marks the point of attachment. X1 = COc1cc2cc(c1Cl)N(C)C(=O)C[C@H](OC(=O)[C@H](C)N(C)C(=O)CCC(C)(C)SSCCCC(=O)*)[C@]1(C)O[C@H]1[C@H](C)[C@@H]1C[C@@](O)(NC(=O)O1)[C@H](OC)/C=C/C=C(\C)C2; X2 = COc1cc2cc(c1Cl)N(C)C(=O)C[C@H](OC(=O)[C@H](C)N(C)C(=O)CCC(C)SSC(C)CCC(=O)*)[C@]1(C)O[C@H]1[C@H](C)[C@@H]1C[C@@](O)(NC(=O)O1)[C@H](OC)/C=C/C=C(\C)C2; X3 = COc1cc2cc(c1Cl)N(C)C(=O)C[C@H](OC(=O)[C@H](C)N(C)C(=O)CCSSCCCC(=O)*)[C@]1(C)O[C@H]1[C@H](C)[C@@H]1C[C@@](O)(NC(=O)O1)[C@H](OC)/C=C/C=C(\C)C2; 1Nal = N[C@@H](Cc1cccc2ccccc12)C(=O)O; TBMB = c1c(C[*:1])cc(C[*:3])cc1C[*:2]; Tle = CC(C)(C)[C@H](N)C(=O)O; βAla = NCCC(=O)O; Sar = CNCC(=O)O

Key:
[1] = target: T1, MT1-MMP hemopexin domain (Homo sapiens, UniProt P50281); assay: Competition assay using fluorescence polarisation; assay type: binding
T1 construct: residues Cys319-Gly511 from the human gene; His6 (N); made in house; host or cells: HEK293 (transient), pEXPR-IBA42 vector
Outline: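 Pre-formed PEX–fluorescent tracer complex titrated with non-fluoresceinated bicyclic peptide, which displaces tracer and lowers fluorescence polarisation. Competitor Kd obtained by fitting to the cubic-equation solution for tracer/titrant/protein equilibria, using tracer Kd from separate direct-binding FP.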

[2] = Plasma stability, quantitative LC-MS (Method #2); assay type: in vitro ADME, human; conditions: for t1/2 (hrs) (human plasma): Table 16, incubation up to 24 hrs, 4 μM; for degradation half-life in human plasma: refers to Table 16
Experimental: (§1) […] […] Prior to LC-MS analysis, samples were defrosted, and mixed with 3 volumes (here, 120 μL) of 1:1 acetonitrile/MeOH water. The milky suspensions were centrifuged for 30 min at 13000 rpm, and peptide-containing supernatants were quantitated for doubly/triply charged species and MS/MS fragments thereof using a Waters Xevo TQ-D instrument, while using a plasma extracted standard curve of the same peptides as a reference. The half-life of degradation in plasma was used to assess the comparative stability of the molecules.

[3] = Plasma stability, quantitative LC-MS (Method #2); assay type: in vitro ADME, mouse; conditions: Table 16; incubation up to 24 hrs, 4 μM
Experimental: as §1

[4] = Plasma stability, quantitative LC-MS; assay type: in vitro ADME, rat; conditions: Table 16; incubation up to 24 hrs, 4 μM
[5] = Relative stability to DTT of Bicycle Drug Conjugates, quantitative LC-MS; assay type: physicochemical; conditions: Bicycle Drug Conjugates containing the disulphide linker
Experimental: The four BDCs were assessed for several in vitro parameters such as retention of potency to the human MT1-MMP hemopexin domain, stability in ex vivo mouse, rat and human plasma, and stability to reducing agents such as dithiothreitol.

[6] = cited from earlier work; for reduction in sensitivity to a reducing agent such as dithiothreitol (compared to the non-hindered disulphide): in the antibody drug conjugate context; for Relative Stability to DTT (ADC): values relate to antibody drug conjugates containing the disulphide linker
[7] = tested on: human lung squamous cell carcinoma line EBC-1; assay: Efficacy in EBC-1 xenograft mice; assay type: in vivo, mouse
Experimental: All BDCs containing the stabilised bicycle core sequence were tested for their efficacies in in vivo mouse xenograft models, using the human lung squamous cell carcinoma line EBC-1.
The area under the curve (AUC) of tumour volume over time and BDC was taken and plotted against the corresponding dose group (FIG. 13).

[8] = plasma samples from mice dosed intravenously (0.5, 1 and 2 hrs); conditions: male CD1 mice, up to 2 hrs
[9] = plasma samples taken at t=0.5, 1 and 2 hrs from intravenously dosed mice; conditions: male CD1 mice, up to 2 hrs
[10] = human plasma; conditions: up to 24 hrs
[11] = mouse plasma; conditions: up to 24 hrs
[12] = rat plasma; conditions: up to 24 hrs
[13] = target: T2, hemopexin domain of MT1-MMP (Homo sapiens, UniProt P50281); assay: Hemopexin binding assay using the alpha screen; conditions: qualitative
T2 construct: residues Cys319-Gly511 from the human gene; His6 (N); made in house; host or cells: HEK293 (transient), pEXPR-IBA42 vector
Experimental: Employing previously established methods for generating bicyclic peptide phage libraries, selections were performed against the human hemopexin domain of MT1-MMP.
The most frequently occurring sequences were assayed for Hemopexin binding using the alpha screen, where all signals were high compared to the original 17-69 sequence (see Table 1 and FIG. 14): […]

[14] = tested on: HT-1080 xenograft tumours; assay: Efficacy in HT-1080 xenograft mice; assay type: in vivo, mouse; conditions: HT1080 xenograft
Experimental: Balb/c nude mice bearing subcutaneous HT-1080 xenograft tumours were treated with BDCs or vehicle (PBS). BDCs were dosed 3 times weekly for 2 weeks, dosing initiated when tumours measured approx. 150-200 mm^3. Mice were monitored, and measurements of tumour volume and body weight recorded 3 times a week.

[15] = Table 16, footnote e: 17-69-07-N004 as tracer in FP competition, read-out: Kd (nM) (Hemopexin domain)

Molecule: C[C@H](NC(=O)CN(C)C(=O)CN(C)C(=O)CN(C)C(=O)CN(C)C(=O)CN(C)C(=O)CN(C)C(=O)CN(C)C(=O)CN(C)C(=O)CN(C)C(=O)CN(C)C(=O)CCN)C(=O)N[C@H]1CSCc2cc3cc(c2)CSC[C@H](NC(=O)[C@@H](C)NC(=O)[C@H](Cc2cccc4ccccc24)NC(=O)[C@H](CCC(=O)O)NC(=O)[C@H](CC(N)=O)NC(=O)[C@@H](C)NC1=O)C(=O)N[C@@H](CCC(=O)O)C(=O)N[C@@H](CC(=O)O)C(=O)N[C@@H](Cc1ccccc1)C(=O)N[C@@H](Cc1ccc(O)cc1)C(=O)N[C@@H](CC(=O)O)C(=O)N[C@@H](C(C)(C)C)C(=O)N[C@H](C(N)=O)CSC3 [17-69-07-N241, bAla-Sar10-A-(17-69-07) D-Ala1 1Nal4 D-Ala5 tBuGly11] (H-[βAla][Sar][Sar][Sar][Sar][Sar][Sar][Sar][Sar][Sar][Sar]AC[dA]NE[1Nal][dA]CEDFYD[Tle]C-NH2; linker 13-19-26 via TBMB)
Kd ([1]; Table 12, molecules selected for plasma stability assessment, read-out: Kd): 1.21 ± 0.24 nM | Kd [1, 15]: 1.4 ± 0.3 nM | species cross-reactivity ([1]; murine, dog, cynomolgus and human MT1-MMP): fully cross reactive | t1/2 (hrs) (human plasma) [2]: >36 h | t1/2 (hrs) (mouse plasma) [3]: >36 h | t1/2 (hrs) (rat plasma) [4]: >36 h

Molecule: COc1cc2cc(c1Cl)N(C)C(=O)C[C@H](OC(=O)[C@H](C)N(C)C(=O)CCC(C)(C)SSCCCC(=O)NCCC(=O)N(C)CC(=O)N(C)CC(=O)N(C)CC(=O)N(C)CC(=O)N(C)CC(=O)N(C)CC(=O)N(C)CC(=O)N(C)CC(=O)N(C)CC(=O)N(C)CC(=O)N[C@@H](C)C(=O)N[C@H]1CSCc3cc4cc(c3)CSC[C@H](NC(=O)[C@@H](C)NC(=O)[C@H](Cc3cccc5ccccc35)NC(=O)[C@H](CCC(=O)O)NC(=O)[C@H](CC(N)=O)NC(=O)[C@@H](C)NC1=O)C(=O)N[C@@H](CCC(=O)O)C(=O)N[C@@H](CC(=O)O)C(=O)N[C@@H](Cc1ccccc1)C(=O)N[C@@H](Cc1ccc(O)cc1)C(=O)N[C@@H](CC(=O)O)C(=O)N[C@@H](C(C)(C)C)C(=O)N[C@H](C(N)=O)CSC4)[C@]1(C)O[C@H]1[C@H](C)[C@@H]1C[C@@](O)(NC(=O)O1)[C@H](OC)/C=C/C=C(\C)C2 [BT17BDC-19] ({X1-βAla}-[Sar][Sar][Sar][Sar][Sar][Sar][Sar][Sar][Sar][Sar]AC[dA]NE[1Nal][dA]CEDFYD[Tle]C-NH2; linker 12-18-25 via TBMB)
Relative Stability to DTT (BDC) [5]: 30 | Kd [1, 15]: 0.5 nM | degradation half-life in human plasma [2]: > 14 h | reduction in sensitivity to a reducing agent such as dithiothreitol (compared to the non-hindered disulphide) [6]: 14 fold | Relative Stability to DTT (ADC) [6]: 14 | t1/2 (hrs) (mouse plasma) [3]: >36 h | t1/2 (hrs) (rat plasma) [4]: >36 h | efficacy, tumour clearance [7]: efficacious and cleared tumours in 9 days | tolerability, body weight [7]: well tolerated at efficacious doses

Molecule: Ac-CYNEFGCEDFYDIC
fragment found [8]: excision of YNEFG in loop 1 (entire loop removed); also recorded: excision of EDFYDI in loop 2 (entire loop removed), minor | fragment found [9]: excision of YNE in loop 1, major; also recorded: excision of YNEF in loop 1; also recorded: excision of YNEFG in loop 1 (the entire loop is removed); also recorded: excision of YD in loop 2, minor; also recorded: excision of FYD in loop 2, minor; also recorded: excision of YDI in loop 2, minor; also recorded: excision of EDFYDI in loop 2 (the entire loop is removed), minor

Molecule: COc1cc2cc(c1Cl)N(C)C(=O)C[C@H](OC(=O)[C@H](C)N(C)C(=O)CCC(C)SSC(C)CCC(=O)NCCC(=O)N(C)CC(=O)N(C)CC(=O)N(C)CC(=O)N(C)CC(=O)N(C)CC(=O)N(C)CC(=O)N(C)CC(=O)N(C)CC(=O)N(C)CC(=O)N(C)CC(=O)N[C@@H](C)C(=O)N[C@H]1CSCc3cc4cc(c3)CSC[C@H](NC(=O)[C@@H](C)NC(=O)[C@H](Cc3cccc5ccccc35)NC(=O)[C@H](CCC(=O)O)NC(=O)[C@H](CC(N)=O)NC(=O)[C@@H](C)NC1=O)C(=O)N[C@@H](CCC(=O)O)C(=O)N[C@@H](CC(=O)O)C(=O)N[C@@H](Cc1ccccc1)C(=O)N[C@@H](Cc1ccc(O)cc1)C(=O)N[C@@H](CC(=O)O)C(=O)N[C@@H](C(C)(C)C)C(=O)N[C@H](C(N)=O)CSC4)[C@]1(C)O[C@H]1[C@H](C)[C@@H]1C[C@@](O)(NC(=O)O1)[C@H](OC)/C=C/C=C(\C)C2 (stereo partly drawn) [BT17BDC-20] ({X2-βAla}-[Sar][Sar][Sar][Sar][Sar][Sar][Sar][Sar][Sar][Sar]AC[dA]NE[1Nal][dA]CEDFYD[Tle]C-NH2; linker 12-18-25 via TBMB)
Relative Stability to DTT (BDC) [5]: 93 | Kd ([1]; Table 16, footnote f: 17-69-07-N040 as tracer in FP competition, read-out: Kd (nM) (Hemopexin domain)): 2.95 ± 1.3 nM | t1/2 (hrs) (human plasma) [2]: 32 ± 1 h | degradation half-life in human plasma [2]: > 14 h | reduction in sensitivity to a reducing agent such as dithiothreitol (compared to the non-hindered disulphide) [6]: 170 fold | Relative Stability to DTT (ADC) [6]: 170 | t1/2 (hrs) (mouse plasma) [3]: >36 h | t1/2 (hrs) (rat plasma) [4]: 34 ± 4 h | efficacy, tumour clearance [7]: not efficacious and only caused a marginal reduction in tumour sizes | tolerability, body weight [7]: tolerated based on constant weight

not cleaved [10]: stable; t1/2 >36 hrs (human plasma) | not cleaved [11]: stable; t1/2 >36 hrs (mouse plasma) | not cleaved [12]: stable; t1/2 >36 hrs (rat plasma)
Molecule: βAla-Sar10-A-C(D-Ala)NE(1Nal)(D-Ala)CEDFYD(tBuGly)C

Molecule: CC[C@H](C)[C@@H]1NC(=O)[C@H](CC(=O)O)NC(=O)[C@H](Cc2ccc(O)cc2)NC(=O)[C@H](Cc2ccccc2)NC(=O)[C@H](CC(=O)O)NC(=O)[C@H](CCC(=O)O)NC(=O)[C@@H]2CSCc3cc(cc(c3)CSC[C@H](N)C(=O)N[C@@H](CCCCN)C(=O)N[C@@H](CC(N)=O)C(=O)N[C@@H](CCCNC(=N)N)C(=O)NCC(=O)N[C@@H](Cc3ccccc3)C(=O)NCC(=O)N2)CSC[C@@H](C(N)=O)NC1=O [Peptide 17-69] (H-CKNRGFGCEDFYDIC-NH2; linker 1-8-15 via TBMB)
alpha screen binding signal [13]: qualitative binding to the target was verified

Molecule: CC[C@H](C)[C@@H]1NC(=O)[C@H](CC(=O)O)NC(=O)[C@H](Cc2ccc(O)cc2)NC(=O)[C@H](Cc2ccccc2)NC(=O)[C@H](CC(=O)O)NC(=O)[C@H](CCC(=O)O)NC(=O)[C@@H]2CSCc3cc(cc(c3)CSC[C@H](NC(=O)[C@H](C)NC(=O)CN(C)C(=O)CN(C)C(=O)CN(C)C(=O)CN(C)C(=O)CN(C)C(=O)CN(C)C(=O)CN(C)C(=O)CN(C)C(=O)CN(C)C(=O)CN(C)C(=O)CNC(=O)CCCSSCCC(=O)N(C)[C@@H](C)C(=O)O[C@H]3CC(=O)N(C)c4cc(cc(OC)c4Cl)C/C(C)=C/C=C/[C@@H](OC)[C@@]4(O)C[C@H](OC(=O)N4)[C@@H](C)[C@@H]4O[C@@]34C)C(=O)N[C@@H](Cc3ccc(O)cc3)C(=O)N[C@@H](CC(N)=O)C(=O)N[C@@H](CCC(=O)O)C(=O)N[C@@H](Cc3ccccc3)C(=O)NCC(=O)N2)CSC[C@@H](C(N)=O)NC1=O [BT17BDC-9] (X3-G[Sar][Sar][Sar][Sar][Sar][Sar][Sar][Sar][Sar][Sar]ACYNEFGCEDFYDIC-NH2; linker 13-19-26 via TBMB)
weight of the animals [14]: largely stable | tumour volume ([14]; compared to vehicle control, listed as BDC17BDC-9): significant reduction in tumour volume after 9 days post injection; also recorded: Tumours were completely cleared by day 14
